Reference: ChEMBL document CHEMBL2331418, “Synthesis of tartaric acid analogues of FR258900 and their evaluation as glycogen phosphorylase inhibitors” (Bioorg Med Chem Lett, 2013)

Experiments:
[1] = Competitive inhibition of rabbit muscle glycogen phosphorylase b using constant concentration of glucose-1-phosphate, glycogen and varying concentration of AMP as substrate; format: tissue-based, Oryctolagus cuniculus, Muscle tissue
[2] = Non-competitive inhibition of rabbit muscle glycogen phosphorylase b using constant concentration of AMP, glycogen and varying concentration of glucose-1-phosphate as substrate; format: tissue-based, Oryctolagus cuniculus, Muscle tissue
[3] = biological target: T1, Glycogen phosphorylase, muscle form (Oryctolagus cuniculus, UniProt P00489); experiment: Inhibition of rabbit muscle glycogen phosphorylase
T1 sequence (P00489 whole entry): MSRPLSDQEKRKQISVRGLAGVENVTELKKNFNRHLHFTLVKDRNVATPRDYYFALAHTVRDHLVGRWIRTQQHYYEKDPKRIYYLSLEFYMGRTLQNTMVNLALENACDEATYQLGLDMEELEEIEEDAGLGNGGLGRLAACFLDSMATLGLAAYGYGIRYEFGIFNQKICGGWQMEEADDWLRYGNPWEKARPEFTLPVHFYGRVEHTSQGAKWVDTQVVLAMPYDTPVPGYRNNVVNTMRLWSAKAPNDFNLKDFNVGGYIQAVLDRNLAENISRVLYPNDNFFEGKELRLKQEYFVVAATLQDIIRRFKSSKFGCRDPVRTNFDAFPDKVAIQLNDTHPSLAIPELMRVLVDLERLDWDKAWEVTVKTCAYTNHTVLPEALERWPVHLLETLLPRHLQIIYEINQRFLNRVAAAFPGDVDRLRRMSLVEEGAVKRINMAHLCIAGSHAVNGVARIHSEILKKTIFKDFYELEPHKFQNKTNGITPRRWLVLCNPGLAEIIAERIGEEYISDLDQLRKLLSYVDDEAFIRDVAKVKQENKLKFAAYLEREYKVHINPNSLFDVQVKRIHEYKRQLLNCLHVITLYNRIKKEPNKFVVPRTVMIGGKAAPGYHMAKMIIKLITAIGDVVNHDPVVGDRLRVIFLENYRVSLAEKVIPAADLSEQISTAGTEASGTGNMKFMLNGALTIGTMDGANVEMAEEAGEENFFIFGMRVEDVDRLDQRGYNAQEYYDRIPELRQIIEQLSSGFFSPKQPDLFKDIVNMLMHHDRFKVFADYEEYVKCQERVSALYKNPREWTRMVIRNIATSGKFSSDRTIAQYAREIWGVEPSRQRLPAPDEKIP

[4] = biological target: T2, Glycogen phosphorylase, liver form (Homo sapiens, UniProt P06737); experiment: Inhibition of human liver glycogen phosphorylase
T2 sequence (P06737 whole entry): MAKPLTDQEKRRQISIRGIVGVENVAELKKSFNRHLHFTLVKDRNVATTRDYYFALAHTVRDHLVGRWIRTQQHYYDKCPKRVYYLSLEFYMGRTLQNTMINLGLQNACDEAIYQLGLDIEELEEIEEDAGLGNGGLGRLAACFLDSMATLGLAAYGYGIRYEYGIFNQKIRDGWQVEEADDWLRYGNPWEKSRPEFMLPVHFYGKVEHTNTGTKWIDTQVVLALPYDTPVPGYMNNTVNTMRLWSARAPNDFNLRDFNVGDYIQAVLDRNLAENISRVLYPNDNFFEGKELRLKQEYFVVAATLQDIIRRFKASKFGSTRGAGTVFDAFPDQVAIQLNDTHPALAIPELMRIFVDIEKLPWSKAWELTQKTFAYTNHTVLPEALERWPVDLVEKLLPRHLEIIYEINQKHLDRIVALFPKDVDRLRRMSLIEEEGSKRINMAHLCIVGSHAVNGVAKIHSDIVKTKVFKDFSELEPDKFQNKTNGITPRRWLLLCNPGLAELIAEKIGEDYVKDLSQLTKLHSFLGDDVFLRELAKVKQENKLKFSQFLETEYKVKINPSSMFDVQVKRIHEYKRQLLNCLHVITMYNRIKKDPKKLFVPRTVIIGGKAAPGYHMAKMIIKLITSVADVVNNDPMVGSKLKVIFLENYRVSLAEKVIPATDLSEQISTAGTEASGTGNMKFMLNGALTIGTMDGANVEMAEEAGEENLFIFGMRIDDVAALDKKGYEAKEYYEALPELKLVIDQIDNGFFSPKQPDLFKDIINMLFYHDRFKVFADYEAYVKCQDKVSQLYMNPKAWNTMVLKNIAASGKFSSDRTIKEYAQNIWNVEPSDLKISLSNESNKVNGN

Row | Ki [1] | Ki [2] | Ki [3] | IC50 [4] | SMILES
1 | 26.4 µM | 109 µM |  |  | O=C(/C=C/c1ccc(O)cc1)O[C@H](C(=O)O)[C@H](OC(=O)/C=C/c1ccc(O)cc1)C(=O)O
2 | 0.2 µM | 5.47 µM | 0.46 µM | 2.5 µM | O=C(O)C[C@H](OC(=O)/C=C/c1ccc(O)cc1)[C@@H](OC(=O)/C=C/c1ccc(O)cc1)C(=O)O
3 | 11.3 µM | 300 µM |  |  | O=C(/C=C/c1ccc(O)cc1)O[C@@H](C(=O)O)[C@@H](OC(=O)/C=C/c1ccc(O)cc1)C(=O)O
4 | 5.68 µM | 71.4 µM |  |  | O=C(/C=C/c1ccc(O)cc1)O[C@H](C(=O)O)[C@@H](OC(=O)/C=C/c1ccc(O)cc1)C(=O)O
